PubChem BioAssay (NCI)
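How tested: cells in 96-well plates exposed to compound for 48 hours at five concentrations. TGI: concentration producing complete growth inhibition.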

Key:
Test in all cases: NCI tumour cell line growth inhibition, 48 h
NCI/ADR-RES ovarian = tested on: NCI/ADR-RES ovarian
NCI-H23 lung = tested on: NCI-H23 lung
SF-539 CNS = tested on: SF-539 CNS
MCF7 breast = tested on: MCF7 breast
KM12 colon = tested on: KM12 colon
OVCAR-5 ovarian = tested on: OVCAR-5 ovarian
M14 melanoma = tested on: M14 melanoma
MDA-MB-231 breast = tested on: MDA-MB-231 breast
IGROV1 ovarian = tested on: IGROV1 ovarian
MOLT-4 leukemia = tested on: MOLT-4 leukemia
RXF 393 renal = tested on: RXF 393 renal
NCI-H522 lung = tested on: NCI-H522 lung

| Compound | TGI (NCI/ADR-RES ovarian) | TGI (NCI-H23 lung) | TGI (SF-539 CNS) | TGI (MCF7 breast) | TGI (KM12 colon) | TGI (OVCAR-5 ovarian) | TGI (M14 melanoma) | TGI (MDA-MB-231 breast) | TGI (IGROV1 ovarian) | TGI (MOLT-4 leukemia) | TGI (RXF 393 renal) | TGI (NCI-H522 lung) |
| --- | --- | --- | --- | --- | --- | --- | --- | --- | --- | --- | --- | --- |
| N#Cc1cnn2c1n[n+]([O-])c1ccc(Cl)cc12 | > 32.3 µM | 12.2 µM | 44.5 µM | > 100 µM | > 100 µM | > 76.8 µM | 31.8 µM | 35.5 µM | 8.53 µM | 17.6 µM | 42.4 µM | 3.81 µM |
| COc1ccc(NS(=O)CCc2ccccc2)cc1 (centres undefined) | > 100 µM | > 100 µM | > 100 µM | > 100 µM | > 100 µM | > 100 µM | > 100 µM | > 100 µM | > 100 µM | > 100 µM | > 100 µM | > 100 µM |
| CN(CCO)CC(=O)CC(O)(C(F)(F)F)C(F)(F)F | > 100 µM | 60.2 µM | > 100 µM | > 100 µM | > 100 µM | > 100 µM | > 100 µM | > 100 µM | > 100 µM | > 100 µM | 46.8 µM | > 100 µM |
| CCCCCCN(C(=O)Oc1ccccc1)C(C#N)c1ccccc1 (centres undefined) | > 100 µM | > 100 µM | > 100 µM | > 100 µM | > 100 µM | > 100 µM | > 100 µM | > 100 µM | > 100 µM | > 100 µM | > 100 µM | > 100 µM |
| Cc1c(-c2ccccc2)c(-c2ccc(OCCN(C)C)cc2)n2ccccc12 | 27.5 µM | 32 µM | 24.8 µM | 23.7 µM | 15.1 µM | 28.8 µM | 3.45 µM | 23.6 µM | 23.8 µM | 15.8 µM | 25.7 µM | 24 µM |
| C/C(C=O)=N\Nc1cc(C)c2ccccc2n1 | 31 µM | 25.9 µM | 28.8 µM | 29.5 µM | 28.5 µM | 34.3 µM | 31.8 µM | 32.3 µM | 32.1 µM | 36.8 µM | 43.1 µM | 47.1 µM |
| Cc1sc2ncnc(NCCc3ccccc3)c2c1C | > 100 µM | 36 µM | 31.2 µM | 28.6 µM | 29.6 µM | 35.8 µM | 41.3 µM | 37.9 µM | 32.5 µM | 63.8 µM | 34.1 µM | 25.1 µM |
| COc1ccc(CSCc2cc(OC)c(OC)c(OC)c2)cc1 | > 31.6 µM | > 100 µM | > 100 µM | > 100 µM | > 100 µM | > 100 µM | > 100 µM | > 100 µM | > 100 µM | > 100 µM | > 100 µM | > 100 µM |
| CN(C)c1ccc(C2CC(=O)CC(c3ccc(N(C)C)cc3)C23C(=O)NC(=O)NC3=O)cc1 (centres undefined) | > 25 µM | > 25 µM | > 25 µM | > 25 µM | > 25 µM | > 25 µM | > 25 µM | > 25 µM | > 25 µM | > 25 µM | > 25 µM | > 25 µM |
| COc1ccc(/C=C/C(=O)NCC(NC(=O)/C=C/c2ccc(OC)c(OC)c2)C(=O)O)cc1OC (centres undefined) | 0.0691 µM | > 100 µM | > 100 µM | > 100 µM | > 100 µM | > 100 µM | > 100 µM | > 100 µM |  | > 100 µM | > 100 µM | > 100 µM |
| CCOC(=O)CCc1c(C(=O)OCC)[nH]c(/C=C2/NC(=O)C(C)=C2CC)c1C | 36.9 µM | 11.7 µM | 44.4 µM | 17.7 µM | 23.9 µM | > 100 µM | 20.8 µM | 48.3 µM | 47.7 µM | 13.1 µM | 30.3 µM | 31.8 µM |
| O=C(CNC(=O)OCc1ccccc1)NCCCCC(NC(=O)OCc1ccccc1)C(=O)O (centres undefined) | > 100 µM | > 100 µM | > 100 µM | > 100 µM | > 100 µM | > 100 µM | > 100 µM | > 100 µM | > 100 µM | > 100 µM | > 100 µM | > 100 µM |
| COc1ccc2oc(=N)c(C(N)=S)cc2c1 | 37.1 µM |  | 51.7 µM | > 100 µM | 84.8 µM | > 100 µM | > 100 µM | 54.1 µM | > 100 µM | > 100 µM | 32.8 µM | 35.3 µM |
| O=C1C(NCCc2cc(Br)c(O)c(Br)c2)=CC(=O)c2ncccc21 | 49.5 µM | 2.98 µM | 5.36 µM | 17.4 µM | 20.1 µM | 20.2 µM | 8.36 µM | 29.5 µM | 10.3 µM | 24.1 µM | 29.1 µM | 12.1 µM |
| C[N+](C)(C)CC1Cc2ccccc2C1=O (centres undefined) | > 6.85 µM | > 10 µM | > 10 µM | 5.41 µM | > 10 µM | > 10 µM | > 6.99 µM | > 10 µM | > 10 µM | 4.95 µM | > 10 µM | 4.56 µM |
| CC(=O)c1c2c(cc3c1CC1(Cc4cc5c(cc4C1)CCC5)C3)CCC2 | > 100 µM | > 100 µM | > 100 µM | > 100 µM |  | > 100 µM | > 100 µM | > 100 µM | > 100 µM | > 100 µM | > 100 µM | > 100 µM |
| COc1c(O)cc(/C=C/c2cc(O)cc3c2[C@@]2(C(=O)O3)c3c(O)cc(O)cc3OC2c2cccc(O)c2)cc1O (some centres undefined) | 77.8 µM | > 100 µM | > 100 µM | > 100 µM | > 100 µM |  | > 100 µM | > 100 µM | > 100 µM | 11 µM | > 100 µM | > 100 µM |
| COC(=O)n1c(=O)nc2c3c(ncn21)Oc1c(c(-c2ccccc2)nn1-c1ccccc1)C3c1ccc(Cl)cc1 (centres undefined) | 2.77 µM | 3.96 µM | 3.14 µM | 3.06 µM | 2.66 µM | 2.58 µM | 2.75 µM | 3.05 µM |  |  | 2.98 µM | 2.82 µM |
| O=c1nc2n(CCO)c(-c3ccccc3)c(-c3ccccc3)nc-2c(=O)[nH]1 | > 100 µM | > 100 µM | > 100 µM | > 100 µM | > 100 µM | > 100 µM | > 100 µM | > 100 µM | > 100 µM | > 100 µM | > 100 µM | > 100 µM |
| N#Cc1c(-c2ccccc2)c(C#N)c(=O)n(NS(=O)(=O)c2ccccc2)c1O | > 100 µM |  | > 100 µM | > 100 µM | > 100 µM | > 100 µM | > 100 µM | > 100 µM | > 100 µM | > 100 µM | > 100 µM | > 100 µM |
| CCOc1ccc(C2c3[nH]c4ccccc4c3CCN2C(=O)c2cccs2)cc1 (centres undefined) | > 100 µM | > 100 µM | > 100 µM | > 100 µM | > 100 µM | > 100 µM | > 100 µM | > 100 µM | > 100 µM | > 100 µM | > 100 µM | > 100 µM |
| CSc1nc(=S)[nH]c2n[nH]c(C)c12 | > 100 µM | > 100 µM | > 100 µM | > 100 µM | > 100 µM | > 100 µM | > 100 µM | > 100 µM |  | > 100 µM | > 100 µM | > 100 µM |
| CN(C)c1ccc(C(C#N)N2CCCN(C(C#N)c3ccc(N(C)C)cc3)C2c2ccc(N(C)C)cc2)cc1 (centres undefined) | > 100 µM | > 100 µM | > 100 µM | > 100 µM | > 100 µM | > 100 µM | > 100 µM | > 100 µM | > 100 µM | > 100 µM | > 100 µM | > 100 µM |
| O=C(Nc1ccccc1)N1CCNC1=S | > 100 µM | > 100 µM | > 100 µM | > 100 µM | > 100 µM | > 100 µM | > 100 µM | > 100 µM | > 100 µM | > 100 µM | 98.2 µM | > 100 µM |
| CC(=O)Nc1c(C)cc(OCC(=O)O)cc1C | > 100 µM | > 100 µM |  | > 100 µM | > 100 µM | > 100 µM | > 100 µM | > 100 µM | > 100 µM |  | > 100 µM | > 100 µM |
| CCCCCCC(N)(CCCCCC)C(=O)Nn1c(C)ccc1C | > 100 µM | > 100 µM |  | 59.4 µM | > 100 µM | > 100 µM | > 100 µM | > 100 µM | > 100 µM | > 100 µM | > 100 µM | > 100 µM |
| Cc1ccc(-c2c(C#N)c(-c3ccc(N(C)C)cc3)c(C#N)c(=O)n2NS(=O)(=O)c2ccccc2)cc1 | > 100 µM |  | 83.4 µM | > 100 µM | > 100 µM | > 100 µM | > 100 µM | > 100 µM | > 100 µM | 52.8 µM | 68.1 µM | > 100 µM |
| N#C/C(=C\c1ccc(Cl)cc1)c1nc2ccccc2c(=O)[nH]1 | > 100 µM |  | > 100 µM | > 100 µM | > 100 µM | > 100 µM | > 100 µM | > 100 µM | > 100 µM | > 100 µM | > 100 µM | > 100 µM |
| NC(=S)N/N=C/c1cc(CN2CCOCC2)c(N)cn1 | 94.3 µM | > 100 µM | 84.2 µM | > 100 µM | > 100 µM | > 100 µM | 50.9 µM | > 100 µM | > 100 µM | > 100 µM | > 100 µM |  |
